# Values quoted from earlier work in patent US20100284985A1, “Composition” (Danisco A/S, priority 2007, published 2010).
# Tested on: common food spoilage yeasts and moulds
# Settings: most strains of common food spoilage yeasts and moulds; cited from earlier work
smiles,measurement,value
C[C@@H]1C/C=C/C=C/C=C/C=C/[C@H](O[C@@H]2O[C@H](C)[C@@H](O)[C@H](N)[C@@H]2O)C[C@@H]2O[C@](O)(C[C@@H](O)C[C@H]3O[C@@H]3/C=C/C(=O)O1)C[C@H](O)[C@H]2C(=O)O [natamycin],concentrations inhibiting most strains,1-15 ppm
